Numbering of substitutions follows the chain as printed. Values joined by “and” are separate entries in the source; they are usually repeats but may differ in a detail not shown here. Equal entries are not always repeated.
Tests used:
rURAT1 = system: rURAT1; parameters: method as in PMID 21074513; conditions: cited from earlier work
hURAT1 = conditions: cited from earlier work
[1] = biological target: T1, h-V18L hURAT1 point mutant (Homo sapiens, UniProt Q96S37, V18L); test: URAT1 uric acid transport activity assay; assay type: cell-based; conditions: HEPES pH 7.3, 100 μM 14C-uric acid
T1 construct: expressed in transfected cells; host or cells: HEK-293T

[2] = biological target: T2, h-S35N hURAT1 point mutant (Homo sapiens, UniProt Q96S37, S35N); test: URAT1 uric acid transport activity assay; assay type: cell-based; conditions: for fold reduced sensitivity/affinity of h-S35N compared to hURAT1: from IC50 values; for IC50: h-S35N, 100 μM 14C-uric acid
T2 sequence (Q96S37 1-553 S35N): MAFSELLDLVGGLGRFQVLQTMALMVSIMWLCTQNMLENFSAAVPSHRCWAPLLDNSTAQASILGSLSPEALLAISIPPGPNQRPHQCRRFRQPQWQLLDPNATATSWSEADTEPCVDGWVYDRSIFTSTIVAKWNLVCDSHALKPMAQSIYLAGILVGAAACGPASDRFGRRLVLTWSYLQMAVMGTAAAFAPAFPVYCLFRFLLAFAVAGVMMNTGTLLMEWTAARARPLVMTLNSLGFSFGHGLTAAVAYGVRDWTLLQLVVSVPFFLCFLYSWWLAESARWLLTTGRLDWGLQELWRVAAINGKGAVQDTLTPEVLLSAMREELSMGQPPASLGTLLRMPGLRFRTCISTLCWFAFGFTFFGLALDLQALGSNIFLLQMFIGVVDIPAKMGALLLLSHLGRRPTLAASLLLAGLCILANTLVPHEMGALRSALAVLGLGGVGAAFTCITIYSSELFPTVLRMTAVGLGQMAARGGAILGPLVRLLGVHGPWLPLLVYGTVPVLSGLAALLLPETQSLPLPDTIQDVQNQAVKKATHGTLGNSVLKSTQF

[3] = biological target: T3, h-M22V hURAT1 point mutant (Homo sapiens, UniProt Q96S37, M22V); test: URAT1 uric acid transport activity assay; assay type: cell-based; conditions: HEPES pH 7.3, 100 μM 14C-uric acid
T3 construct: expressed in transfected cells; host or cells: HEK-293T

human URAT1 (hURAT1 WT) = biological target: T4, human URAT1 (hURAT1 WT) (Homo sapiens, UniProt Q96S37); test: URAT1 uric acid transport activity assay; assay type: cell-based; conditions: for IC50: hURAT1 WT, 100 μM 14C-uric acid; for fold higher affinity (potency) of hURAT1 compared to rURAT1: ratio of IC50 values, rURAT1 vs hURAT1
T4 sequence (Q96S37 1-553): T2 sequence (Q96S37 1-553 S35N) with N35S

[4] = biological target: T5, h-M29L hURAT1 point mutant (Homo sapiens, UniProt Q96S37, M29L); test: URAT1 uric acid transport activity assay; assay type: cell-based; conditions: HEPES pH 7.3, 100 μM 14C-uric acid
T5 construct: expressed in transfected cells; host or cells: HEK-293T

[5] = biological target: T6, h-C351F/T354M hURAT1 double point mutant (Homo sapiens, UniProt Q96S37, C351F/T354M); test: URAT1 uric acid transport activity assay; assay type: cell-based; conditions: HEPES pH 7.3, 100 μM 14C-uric acid
T6 construct: expressed in transfected cells; host or cells: HEK-293T
In short: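 Readout: 14C-uric acid uptake (100 μM, 10 min) in cells transiently transfected one day earlier with mutant rURAT1. Serially diluted inhibitors were added 5 min before substrate. Triplicate points, four-parameter logistic fit for IC50.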

[6] = biological target: T7, h-F365Y hURAT1 point mutant (Homo sapiens, UniProt Q96S37, F365Y); test: URAT1 uric acid transport activity assay; assay type: cell-based; conditions: for fold reduced affinity of h-F365Y compared to hURAT1: from IC50 values; for IC50: h-F365Y, 100 μM 14C-uric acid
T7 sequence (Q96S37 1-553 F365Y): T2 sequence (Q96S37 1-553 S35N) with N35S, F365Y

[7] = read-out: Km for the substrate urate

T5 sequence (Q96S37 whole entry M29L): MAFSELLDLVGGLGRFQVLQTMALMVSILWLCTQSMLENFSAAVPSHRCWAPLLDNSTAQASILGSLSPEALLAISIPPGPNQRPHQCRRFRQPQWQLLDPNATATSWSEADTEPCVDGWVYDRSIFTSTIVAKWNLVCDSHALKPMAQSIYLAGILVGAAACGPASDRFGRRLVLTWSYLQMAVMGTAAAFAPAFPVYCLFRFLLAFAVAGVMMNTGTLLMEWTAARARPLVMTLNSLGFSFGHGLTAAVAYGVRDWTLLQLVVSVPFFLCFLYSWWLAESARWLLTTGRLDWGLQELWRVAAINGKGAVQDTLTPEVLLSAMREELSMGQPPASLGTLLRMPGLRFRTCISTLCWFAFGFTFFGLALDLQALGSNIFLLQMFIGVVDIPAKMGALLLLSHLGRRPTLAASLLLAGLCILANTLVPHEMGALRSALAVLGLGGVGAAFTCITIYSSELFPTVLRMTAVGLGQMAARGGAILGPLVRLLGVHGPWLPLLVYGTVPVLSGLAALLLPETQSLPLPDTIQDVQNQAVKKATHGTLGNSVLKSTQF
T3 sequence (Q96S37 whole entry M22V): as the sequence (Q96S37 whole entry M29L) above, with M22V, L29M counted along it
T1 sequence (Q96S37 whole entry V18L): as the sequence (Q96S37 whole entry M29L) above, with V18L, L29M counted along it
T6 sequence (Q96S37 whole entry C351F/T354M): as the sequence (Q96S37 whole entry M29L) above, with L29M, C351F, T354M counted along it

Compound | IC50 (rURAT1) [µM] | IC50 (hURAT1) [µM] | IC50 [1] [µM] | fold reduced sensitivity/affinity of h-S35N compared to hURAT1 [2] [fold] | IC50 ([2]; HEPES pH 7.3) [µM] | IC50 [3] [µM] | IC50 (human URAT1 (hURAT1 WT); HEPES pH 7.3) [µM] | fold higher affinity (potency) of hURAT1 compared to rURAT1 (human URAT1 (hURAT1 WT)) | IC50 [4] | IC50 [5] [µM] | fold reduced affinity of h-F365Y compared to hURAT1 [6] [fold] | IC50 ([6]; HEPES pH 7.3) [µM] | Km (rURAT1; [7]) [µM] | Km (hURAT1; [7]) [µM] | IC50 ([2]; MES pH 5.5) [µM] | IC50 (human URAT1 (hURAT1 WT); MES pH 5.5) [µM] | IC50 ([6]; MES pH 5.5) [µM]
CCc1oc2ccccc2c1C(=O)c1cc(Br)c(O)c(Br)c1 [benzbromarone] | 11.9 | […] |  |  |  |  |  |  |  |  |  |  |  |  |  |  | 
O=C1C(CC[S+]([O-])c2ccccc2)C(=O)N(c2ccccc2)N1c1ccccc1 (centres unmarked) [sulfinpyrazone] |  |  | 19 ± 4.7 | 7 | 233 ± 54 | 28 ± 3.1 | 32 | 21 fold | 8.5 µM and 9 µM | 60 ± 5.9 | 5 | 163 ± 13 |  |  |  |  | 
O=c1[nH]c(=O)c2[nH]c(=O)[nH]c2[nH]1 [uric acid] |  |  |  | 2.1 |  |  |  | greater than 10 fold |  |  | 2.5 |  | 1770 | 371 | 507 | 246 | 609

— paper PMC5054527, “Mechanism of high affinity inhibition of the human urate transporter URAT1” (Scientific Reports, 2016)
